In data set [1] the test system is MPP^+-treated primary midbrain dopamine neurons. Put plainly: Survival of MPP+-challenged cultured dopamine neurons (TH-positive cell count). The data set is classed as cell-based, mouse. Here is the method:
We developed a compound library containing 20 diol derivatives and screened them on cultured primary DA neurons (Supplementary Materials, Table S1). Compounds were taken at a dose of 0.1 and 1 μM (based on effective doses for the epoxydiol). Based on the screening results, we selected four compounds and tested them in a naïve and MPP^+-treated (1-methyl-4-phenylpyridinium (MPP^+), the neurotoxic metabolite of MPTP) DA culture at 1, 10, and 100 nM to select the compound with the lowest effective dose.
The survival of cultured mouse DA neurons was assessed as described before. Briefly, naïve or MPP^+ (dopaminergic selective neurotoxin)-challenged embryonic midbrain neurons were cultured in the presence or absence of a diol-like compound. The number of survived DA neurons was estimated after immunocytochemical staining with antibodies recognizing the key enzyme of dopamine synthesis—tyrosine hydroxylase.

The test system of a further data set is MPTP-treated mice. Put plainly: Open field test in the acute MPTP mouse model of PD. It is filed as in vivo. Here is the method: MPTP was injected intraperitoneally into mice of C57Bl/6 line every 2 h in 8 h period in one day in a dose of 20 mg/kg for a total of four doses as described before, and one additional dose of MPTP was injected on the 7th day. The studied compound PA96 was dissolved in saline containing 0.5% Tween 80 just before use. PA96 in a dose of 1 and 10 mg/kg or VEH was administrated per os 24 h after the last injection of MPTP. Then, PA96 or VEH was injected for 14 days in a 5-day-per-week regime for a total of […].
The effectiveness of the studied medications was evaluated according to their ability to reduce the symptoms of hypokinesia induced by MPTP on days 1, 7, and 14 of the experiment. Hypokinesia caused by neurotoxin administration was evaluated with the “open field” test performed for 2 min using Tru Scan (U.S.) 2 h after the administration of the studied compound, registering the main markers of the locomotor and exploratory activities: time of locomotor activity (s) and movement distance (cm).

In data set [2] the test system is MPTP-lesioned C57BL/6 mice. The experiment in a line: DA and DOPAC levels in midbrain and striatum by HPLC-ED after MPTP lesion. It is filed as in vivo. The procedure:
Neurochemical analyses via HPLC-ED were conducted as described before. Microdissected samples of the striatum (ST) and midbrain were homogenized in 300 and 400 µL of cold 0.6 M HClO4, respectively, using a motor-driven grinder (Z359971, Sigma-Aldrich, USA) and the homogenate was spun for 15 min at 12,000 rpm (+4 °C). The pellet was diluted in 1 mL of 0.1 M NaCl and used for protein quantitation by Bradford (Bio Rad, USA) according to the manufacturer’s protocol. The clear supernatant was diluted twice with pure water and used for assay of DA and […] (DOPAC) by HPLC on Luna C18(2) column (5 μm particle size, L × I.D. 75 × 4.6 mm, Phenomenex, Torrance, CA, USA) with electrochemical detection (750 mV, DECADE II™ Electrochemical Detector; Antec, The Netherlands). The standard mixes containing 1, 2, and 3 ng of DA and DOPAC were repeatedly assayed throughout the entire procedure and used to plot the calibration curves for each substance. The areas of peaks were estimated using LabSolution LG/GC software version 5.54 (Shimadzu Corporation, Japan) and calibrated against the calibrated curves for corresponding standards. The contents of DA and DOPAC were expressed nanogram (ng) per milligram (mg) of protein assayed by Bradford.

The text below walks through data of article PMC9738927, “A Newly Identified Monoterpenoid-Based Small Molecule Able to Support the Survival of Primary Cultured Dopamine Neurons and Alleviate MPTP-Induced Toxicity In Vivo” (Molecules, 2022).

For the compound `C=C(C)[C@@H]1CC=C(C)[C@@H](Sc2nc[nH]n2)[C@@H]1O` [PA96, (1R,2R,6S)-2-(1H-1,2,4-triazol-3-ylthio)-3-methyl-6-(prop-1-en-2-yl)cyclohex-3-enol], the “number of TH-positive neurons relative to VEH-treated wells” value in data set [1] (MPP+ and 1 nM, p = 0.03) is reported as 2.4 fold. Further, the inhibition at 0.1 µM in data set [1] (Mus musculus, Neuron, 100 nM, compared to VEH-treated wells, read-out: Support effect / inhibition, MPP+-treated dopamine neurons, 100 nM) stood at 0%. Moreover, the “tolerability of repeated dosing” value in the data set on MPTP-treated mice (1 mg/kg and 10 mg/kg administered for 14 days) was “well tolerated”. Moreover, the “duration of locomotor activity in open field” value with MPTP-treated mice (MPTP-treated mice, 1 mg/kg, 24 h time point, p = 0.1328 vs VEH) is given as “on VEH level”. For the same compound, the “movement distance in open field” value in the data set with MPTP-treated mice (MPTP-treated mice, 1 and 10 mg/kg per os) was “did not influence”. For the same compound, the “MPTP-induced reduction in DA level in the midbrain” value in data set [2] is “tended to alleviate”. Further, the “DA and DOPAC concentrations in ST or midbrain” value in data set [2] (10 mg/kg) is recorded as “did not affect”.
